Patent US4582639A, “Antitumor antibiotic compound” (priority 1984, dated 1986)
Values after ≈ are worked out from the molar mass of the structure shown. Bridge positions count the residues as written; N and C are the ends. Square brackets hold non-standard residues; d marks the D form. Peptide text beside a SMILES is read from it. I, II: the chains in the order shown. * marks the point of attachment. Quinaldoyl(3-OH) = O=C(c1nc2ccccc2cc1O)*; NMeV = CN[CH](C(=O)O)C(C)C; Pip = O=C(O)[CH]1CCCCN1; Sar = CNCC(=O)O

Tests used:
Strep. faecalis A9611 = assay: serial two-fold agar dilution, MIC; format: cell-based, Streptococcus faecalis; details: Enterococcus faecalis, read-out: Minimum Inhibitory Concentration (MIC)
Experimental: (§1) The antibacterial activities of sandramycin were determined by a serial two-fold agar dilution method. The results are shown in Table 5 in comparison with the activities of luzopeptin A and echinomycin.

[1] = system: gram-positive organisms such as Bacillus subtilis and Staphylococcus aureus as well as Streptococcus faecalis; assay: serial two-fold agar dilution, antibacterial activity in words; format: cell-based
Experimental: as §1

[2] = system: E. coli (actinomycin sensitive) A21780 (AS-19); assay: serial two-fold agar dilution, MIC; format: cell-based; details: Escherichia coli, read-out: Minimum Inhibitory Concentration (MIC)
Experimental: as §1

[3] = system: B. subtilis (Rec. +) A22508-2; assay: serial two-fold agar dilution, MIC; format: cell-based; details: Bacillus subtilis; B. subtilis (Rec. +) A22508-2, agar dilution; read-out: Minimum Inhibitory Concentration (MIC)
Experimental: as §1

E. coli A15119 = assay: serial two-fold agar dilution, MIC; format: cell-based; details: Escherichia coli, read-out: Minimum Inhibitory Concentration (MIC)
Experimental: as §1

[4] = system: B. subtilis (Rec. -) A22509-2-2; assay: serial two-fold agar dilution, MIC; format: cell-based; details: Bacillus subtilis; B. subtilis (Rec. -) A22509-2-2, agar dilution; read-out: Minimum Inhibitory Concentration (MIC)
Experimental: as §1

P-388 leukemia = assay: transplantable mouse tumor P-388 leukemia; format: in vivo, mouse (CDF1 female mice)
Experimental: The methodology used generally followed the protocols of the National Cancer Institute [Cancer Chemotherapy Rep. Part 3, 3, 1-103 (1972)]. The essential experimental details are given at the bottom of Table 6. Two different dose regimens were tested: single dose on day 1 and daily for 5 days. With both schedules, the optimum dose appears to be about 0.2 mg/kg/injection.
Tumor inoculum: 10^6 ascites cells implanted i.p.
Evaluation: MST=median survival time
Effect: % T/C≥(MST treated/MST control)×100
Criteria: % T/C=125 considered significant antitumor activity
AWC: average weight change (treated-control) in grams (on day 4)

[5] = system: S. aureus (echinomycin resistant) A9628; assay: microbe, parasite or virus in culture; format: cell-based; details: Staphylococcus aureus, read-out: Minimum Inhibitory Concentration (MIC)
Experimental: The antibacterial activities of sandramycin were determined by a serial two-fold agar dilution method.

CC(C)C1C(=O)OCC(NC(=O)c2nc3ccccc3cc2O)C(=O)N2CCCCC2C(=O)NCC(=O)N(C)CC(=O)N(C)C(C(C)C)C(=O)OCC(NC(=O)c2nc3ccccc3cc2O)C(=O)N2CCCCC2C(=O)NCC(=O)N(C)CC(=O)N1C (centres unmarked) [Sandramycin] (I: {Quinaldoyl(3-OH)}-S[Pip]G[Sar][NMeV] / II: {Quinaldoyl(3-OH)}-S[Pip]G[Sar][NMeV]; ester I:1-II:C, I:C-II:1; configuration not given here)
MIC (Strep. faecalis A9611): 0.024 µg/mL (≈ 0.0197 µM)
antibacterial activity [1]: strongly inhibitory
MIC [2]: 12.5 µg/mL (≈ 10.2 µM)
MIC [3]: 0.024 µg/mL (≈ 0.0197 µM)
MIC (E. coli A15119): 12.5 µg/mL (≈ 10.2 µM)
MIC [4]: 0.012 µg/mL (≈ 0.00983 µM)
optimum dose (P-388 leukemia; IP, both schedules (single dose on day 1 and daily for 5 days)): about 0.2 mg/kg/injection
AWC Day 4 (P-388 leukemia; d. 1, IP, 0.025 mg/kg/inj.): -0.2 gm
MST (P-388 leukemia; d. 1, IP, 0.025 mg/kg/inj.): 9.5 days
MST % T/C (P-388 leukemia; d. 1, IP, 0.025 mg/kg/inj.): 106%
Survivors Day 5 (P-388 leukemia; d. 1, IP, 0.025 mg/kg/inj.): 6/6
AWC Day 4 (P-388 leukemia; d. 1, IP, 0.05 mg/kg/inj.): -0.6 gm
MST (P-388 leukemia; d. 1, IP, 0.05 mg/kg/inj.): 10.0 days
MST % T/C (P-388 leukemia; d. 1, IP, 0.05 mg/kg/inj.): 111%
Survivors Day 5 (P-388 leukemia; d. 1, IP, 0.05 mg/kg/inj.): 6/6
AWC Day 4 (P-388 leukemia; d. 1, IP, 0.1 mg/kg/inj.): -0.9 gm
MST (P-388 leukemia; d. 1, IP, 0.1 mg/kg/inj.): 11.0 days
MST % T/C (P-388 leukemia; d. 1, IP, 0.1 mg/kg/inj.): 122%
Survivors Day 5 (P-388 leukemia; d. 1, IP, 0.1 mg/kg/inj.): 6/6
AWC Day 4 (P-388 leukemia; d. 1, IP, 0.2 mg/kg/inj.): -1.4 gm
MST (P-388 leukemia; d. 1, IP, 0.2 mg/kg/inj.): 14.5 days
MST % T/C (P-388 leukemia; d. 1, IP, 0.2 mg/kg/inj.): 161%
Survivors Day 5 (P-388 leukemia; d. 1, IP, 0.2 mg/kg/inj.): 6/6
AWC Day 4 (P-388 leukemia; d. 1, IP, 0.4 mg/kg/inj.): -0.7 gm
MST (P-388 leukemia; d. 1, IP, 0.4 mg/kg/inj.): 11.0 days
MST % T/C (P-388 leukemia; d. 1, IP, 0.4 mg/kg/inj.): 122%
Survivors Day 5 (P-388 leukemia; d. 1, IP, 0.4 mg/kg/inj.): 6/6
AWC Day 4 (P-388 leukemia; d. 1, IP, 0.8 mg/kg/inj.): -1.6 gm
MST (P-388 leukemia; d. 1, IP, 0.8 mg/kg/inj.): 10.0 days
MST % T/C (P-388 leukemia; d. 1, IP, 0.8 mg/kg/inj.): 111%
Survivors Day 5 (P-388 leukemia; d. 1, IP, 0.8 mg/kg/inj.): 6/6
AWC Day 4 (P-388 leukemia; d. 1, IP, 1.6 mg/kg/inj.): -1.3 gm
MST (P-388 leukemia; d. 1, IP, 1.6 mg/kg/inj.): 11.5 days
MST % T/C (P-388 leukemia; d. 1, IP, 1.6 mg/kg/inj.): 128%
Survivors Day 5 (P-388 leukemia; d. 1, IP, 1.6 mg/kg/inj.): 6/6
AWC Day 4 (P-388 leukemia; d. 1, IP, 3.2 mg/kg/inj.): -2.8 gm
MST (P-388 leukemia; d. 1, IP, 3.2 mg/kg/inj.): Toxic
MST % T/C (P-388 leukemia; d. 1, IP, 3.2 mg/kg/inj.): Toxic
Survivors Day 5 (P-388 leukemia; d. 1, IP, 3.2 mg/kg/inj.): 0/6
AWC Day 4 (P-388 leukemia; d. 1→5, IP, 0.0125 mg/kg/inj.): -0.9 gm
MST (P-388 leukemia; d. 1→5, IP, 0.0125 mg/kg/inj.): 10.5 days
MST % T/C (P-388 leukemia; d. 1→5, IP, 0.0125 mg/kg/inj.): 117%
AWC Day 4 (P-388 leukemia; d. 1→5, IP, 0.025 mg/kg/inj.): -1.4 gm
MST (P-388 leukemia; d. 1→5, IP, 0.025 mg/kg/inj.): 10.0 days
MST % T/C (P-388 leukemia; d. 1→5, IP, 0.025 mg/kg/inj.): 111%
Survivors Day 5 (P-388 leukemia; d. 1→5, IP, 0.025 mg/kg/inj.): 5/5
AWC Day 4 (P-388 leukemia; d. 1→5, IP, 0.05 mg/kg/inj.): -1.8 gm
MST (P-388 leukemia; d. 1→5, IP, 0.05 mg/kg/inj.): 8.5 days
MST % T/C (P-388 leukemia; d. 1→5, IP, 0.05 mg/kg/inj.): 94%
Survivors Day 5 (P-388 leukemia; d. 1→5, IP, 0.05 mg/kg/inj.): 6/6
AWC Day 4 (P-388 leukemia; d. 1→5, IP, 0.1 mg/kg/inj.): -0.8 gm
MST (P-388 leukemia; d. 1→5, IP, 0.1 mg/kg/inj.): 11.5 days
MST % T/C (P-388 leukemia; d. 1→5, IP, 0.1 mg/kg/inj.): 128%
Survivors Day 5 (P-388 leukemia; d. 1→5, IP, 0.1 mg/kg/inj.): 6/6
AWC Day 4 (P-388 leukemia; d. 1→5, IP, 0.2 mg/kg/inj.): -1.7 gm
MST (P-388 leukemia; d. 1→5, IP, 0.2 mg/kg/inj.): 12.0 days
MST % T/C (P-388 leukemia; d. 1→5, IP, 0.2 mg/kg/inj.): 133%
Survivors Day 5 (P-388 leukemia; d. 1→5, IP, 0.2 mg/kg/inj.): 5/6
AWC Day 4 (P-388 leukemia; d. 1→5, IP, 0.4 mg/kg/inj.): -1.3 gm
MST (P-388 leukemia; d. 1→5, IP, 0.4 mg/kg/inj.): 11.0 days
MST % T/C (P-388 leukemia; d. 1→5, IP, 0.4 mg/kg/inj.): 122%
Survivors Day 5 (P-388 leukemia; d. 1→5, IP, 0.4 mg/kg/inj.): 6/6
AWC Day 4 (P-388 leukemia; d. 1→5, IP, 0.8 mg/kg/inj.): -1.4 gm
MST (P-388 leukemia; d. 1→5, IP, 0.8 mg/kg/inj.): 6.0 days
MST % T/C (P-388 leukemia; d. 1→5, IP, 0.8 mg/kg/inj.): 67%
Survivors Day 5 (P-388 leukemia; d. 1→5, IP, 0.8 mg/kg/inj.): 5/6
AWC Day 4 (P-388 leukemia; d. 1→5, IP, 1.6 mg/kg/inj.): -1.7 gm
MST (P-388 leukemia; d. 1→5, IP, 1.6 mg/kg/inj.): Toxic
MST % T/C (P-388 leukemia; d. 1→5, IP, 1.6 mg/kg/inj.): Toxic
Survivors Day 5 (P-388 leukemia; d. 1→5, IP, 1.6 mg/kg/inj.): 2/6
MIC [5]: 0.098 µg/mL (≈ 0.0802 µM)

CS[C@H]1SC[C@H]2C(=O)N(C)[C@@H](C(C)C)C(=O)OC[C@@H](NC(=O)c3cnc4ccccc4n3)C(=O)N[C@@H](C)C(=O)N(C)[C@@H]1C(=O)N(C)[C@@H](C(C)C)C(=O)OC[C@@H](NC(=O)c1cnc3ccccc3n1)C(=O)N[C@@H](C)C(=O)N2C [Echinomycin]
MIC (Strep. faecalis A9611): 0.012 µg/mL (≈ 0.0109 µM)
MIC [2]: 6.25 µg/mL (≈ 5.68 µM)
MIC [3]: 0.049 µg/mL (≈ 0.0445 µM)
MIC (E. coli A15119): 12.5 µg/mL (≈ 11.4 µM)
MIC [4]: < 0.003 µg/mL
MIC [5]: 0.78 µg/mL (≈ 0.708 µM)

COc1ccc2nc(C(=O)N[C@@H]3COC(=O)[C@H](C(C)(C)O)N(C)C(=O)CN(C)C(=O)CNC(=O)C4C(OC(C)=O)CC=NN4C(=O)[C@H](NC(=O)c4nc5ccc(OC)cc5cc4O)COC(=O)[C@H](C(C)(C)O)N(C)C(=O)CN(C)C(=O)CNC(=O)C4C(OC(C)=O)CC=NN4C3=O)c(O)cc2c1 (some centres unmarked) [Luzopeptin A]
MIC (Strep. faecalis A9611): 0.195 µg/mL (≈ 0.137 µM)
MIC [2]: 12.5 µg/mL (≈ 8.76 µM)
MIC [3]: 0.195 µg/mL (≈ 0.137 µM)
MIC (E. coli A15119): 12.5 µg/mL (≈ 8.76 µM)
MIC [4]: 0.049 µg/mL (≈ 0.0343 µM)
MIC [5]: 0.098 µg/mL (≈ 0.0687 µM)
